Test results taken from the supplement of paper PMC13207355.

Tests used:
Conditions in all cases: exposure time: 72 h
FT3469 [1] = normal neural stem cell line; assay: surviving fraction (nuclei count normalised to DMSO); higher = more cells surviving (less toxic)
E13 [2] = patient-derived glioblastoma stem cells of classical subtype; assay: as above
E28 [3] = patient-derived glioblastoma stem cells of classical subtype; assay: as above
E57 [4] = patient-derived glioblastoma stem cells of mesenchymal subtype; assay: as above
E34 [5] = patient-derived glioblastoma stem cells of proneural subtype; assay: as above
E21 [6] = patient-derived glioblastoma stem cells of mesenchymal subtype; assay: as above
E31 [7] = patient-derived glioblastoma stem cells of proneural subtype; assay: as above
FT3469 [8] = assay: phenotypic distance (Euclidean, principal components) from DMSO controls (arbitrary units); higher = stronger morphological change
E13 [9] = assay: as above
E28 [10] = assay: as above
E57 [11] = assay: as above
E34 [12] = assay: as above
E21 [13] = assay: as above
E31 [14] = assay: as above
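For phenotypic distance (Euclidean, principal components) from DMSO controls in this document: cell Painting imaging in 384-well plates, CellProfiler features reduced to at least 20 principal components, Euclidean distance versus same-plate DMSO vehicle wells (0.1% v/v), median over six images per well.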
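For surviving fraction (nuclei count normalised to DMSO) in this document: nuclei counted by high-content imaging of Hoechst-stained cells in laminin-coated 384-well plates, relative to 0.1% DMSO vehicle wells, with staurosporine as cell-death control.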

SMILES: COc1nc(C)nc(Cl)c1NC1=NCCN1 [Moxonidine]
- surviving fraction (FT3469 [1]; 4.1 nM): 1.03
- surviving fraction (FT3469 [1]; 12.3 nM): 1.1
- surviving fraction (FT3469 [1]; 37 nM): 1.25
- surviving fraction (FT3469 [1]; 111.1 nM): 1.04
- surviving fraction (FT3469 [1]; 333.3 nM): 1.26
- surviving fraction (FT3469 [1]; 1000 nM): 1.18
- surviving fraction (FT3469 [1]; 3000 nM): 1.38
- surviving fraction (E13 [2]; 4.1 nM): 0.843
- surviving fraction (E13 [2]; 12.3 nM): 1.02
- surviving fraction (E13 [2]; 37 nM): 0.886
- surviving fraction (E13 [2]; 111.1 nM): 0.915
- surviving fraction (E13 [2]; 333.3 nM): 0.908
- surviving fraction (E13 [2]; 1000 nM): 0.948
- surviving fraction (E13 [2]; 3000 nM): 0.923
- surviving fraction (E28 [3]; 4.1 nM): 0.996
- surviving fraction (E28 [3]; 12.3 nM): 1.06
- surviving fraction (E28 [3]; 37 nM): 0.904
- surviving fraction (E28 [3]; 111.1 nM): 1.13
- surviving fraction (E28 [3]; 333.3 nM): 0.848
- surviving fraction (E28 [3]; 1000 nM): 1.05
- surviving fraction (E28 [3]; 3000 nM): 0.825
- surviving fraction (E57 [4]; 4.1 nM): 1.06
- surviving fraction (E57 [4]; 12.3 nM): 0.999
- surviving fraction (E57 [4]; 37 nM): 1.06
- surviving fraction (E57 [4]; 111.1 nM): 1.03
- surviving fraction (E57 [4]; 333.3 nM): 0.978
- surviving fraction (E57 [4]; 1000 nM): 0.975
- surviving fraction (E57 [4]; 3000 nM): 1.04
- surviving fraction (E34 [5]; 4.1 nM): 0.953
- surviving fraction (E34 [5]; 12.3 nM): 0.957
- surviving fraction (E34 [5]; 37 nM): 0.962
- surviving fraction (E34 [5]; 111.1 nM): 1.07
- surviving fraction (E34 [5]; 333.3 nM): 1.26
- surviving fraction (E34 [5]; 1000 nM): 0.981
- surviving fraction (E34 [5]; 3000 nM): 0.699
- surviving fraction (E21 [6]; 4.1 nM): 1.03
- surviving fraction (E21 [6]; 12.3 nM): 0.94
- surviving fraction (E21 [6]; 37 nM): 0.924
- surviving fraction (E21 [6]; 111.1 nM): 1.12
- surviving fraction (E21 [6]; 333.3 nM): 1.1
- surviving fraction (E21 [6]; 1000 nM): 1.06
- surviving fraction (E21 [6]; 3000 nM): 0.991
- surviving fraction (E31 [7]; 4.1 nM): 1
- surviving fraction (E31 [7]; 12.3 nM): 1.18
- surviving fraction (E31 [7]; 37 nM): 0.879
- surviving fraction (E31 [7]; 111.1 nM): 1.15
- surviving fraction (E31 [7]; 333.3 nM): 0.956
- surviving fraction (E31 [7]; 1000 nM): 1.21
- surviving fraction (E31 [7]; 3000 nM): 1.06
- phenotypic distance (FT3469 [8]; 4.1 nM): 0.479
- phenotypic distance (FT3469 [8]; 12.3 nM): 0.821
- phenotypic distance (FT3469 [8]; 37 nM): 0.541
- phenotypic distance (FT3469 [8]; 111.1 nM): 0.878
- phenotypic distance (FT3469 [8]; 333.3 nM): 0.406
- phenotypic distance (FT3469 [8]; 1000 nM): 0.742
- phenotypic distance (FT3469 [8]; 3000 nM): 0.873
- phenotypic distance (E13 [9]; 4.1 nM): 0.65
- phenotypic distance (E13 [9]; 12.3 nM): 0.585
- phenotypic distance (E13 [9]; 37 nM): 0.647
- phenotypic distance (E13 [9]; 111.1 nM): 0.433
- phenotypic distance (E13 [9]; 333.3 nM): 0.523
- phenotypic distance (E13 [9]; 1000 nM): 0.446
- phenotypic distance (E13 [9]; 3000 nM): 0.37
- phenotypic distance (E28 [10]; 4.1 nM): 0.486
- phenotypic distance (E28 [10]; 12.3 nM): 0.819
- phenotypic distance (E28 [10]; 37 nM): 0.764
- phenotypic distance (E28 [10]; 111.1 nM): 0.711
- phenotypic distance (E28 [10]; 333.3 nM): 0.733
- phenotypic distance (E28 [10]; 1000 nM): 0.573
- phenotypic distance (E28 [10]; 3000 nM): 0.781
- phenotypic distance (E57 [11]; 4.1 nM): 0.464
- phenotypic distance (E57 [11]; 12.3 nM): 0.657
- phenotypic distance (E57 [11]; 37 nM): 0.543
- phenotypic distance (E57 [11]; 111.1 nM): 0.801
- phenotypic distance (E57 [11]; 333.3 nM): 0.46
- phenotypic distance (E57 [11]; 1000 nM): 0.757
- phenotypic distance (E57 [11]; 3000 nM): 0.505
- phenotypic distance (E34 [12]; 4.1 nM): 0.347
- phenotypic distance (E34 [12]; 12.3 nM): 0.861
- phenotypic distance (E34 [12]; 37 nM): 0.936
- phenotypic distance (E34 [12]; 111.1 nM): 0.523
- phenotypic distance (E34 [12]; 333.3 nM): 0.639
- phenotypic distance (E34 [12]; 1000 nM): 0.533
- phenotypic distance (E34 [12]; 3000 nM): 1.09
- phenotypic distance (E21 [13]; 4.1 nM): 0.506
- phenotypic distance (E21 [13]; 12.3 nM): 0.442
- phenotypic distance (E21 [13]; 37 nM): 0.528
- phenotypic distance (E21 [13]; 111.1 nM): 1.03
- phenotypic distance (E21 [13]; 333.3 nM): 0.334
- phenotypic distance (E21 [13]; 1000 nM): 0.69
- phenotypic distance (E21 [13]; 3000 nM): 0.274
- phenotypic distance (E31 [14]; 4.1 nM): 0.413
- phenotypic distance (E31 [14]; 12.3 nM): 0.823
- phenotypic distance (E31 [14]; 37 nM): 0.773
- phenotypic distance (E31 [14]; 111.1 nM): 0.902
- phenotypic distance (E31 [14]; 333.3 nM): 0.598
- phenotypic distance (E31 [14]; 1000 nM): 0.599
- phenotypic distance (E31 [14]; 3000 nM): 0.717
